Source: ChEMBL document CHEMBL6109155, “Discovery of Phenylacylpiperidine as Novel sEH Inhibitors through Scaffold Hopping of Natural Stilbene” (J Med Chem, 2025)
pIC50: −log10 of the molar value. The source made the active and inactive calls. The calls are words filed in the database; no cut-off is given here.

How the values were obtained:
[1] = tested on: Rattus norvegicus; experiment: Anti-inflammatory activity in Sprague-Dawley rat model of CFA-induced rheumatoid arthritis assessed as decrease in arthritis index at 10 mg/kg, po administered daily measured for 7 to 19 days; format: functional, organism-based; conditions: time 7-19 day
[2] = tested on: Mus musculus; experiment: Anti-inflammatory activity in CD-1 mouse model of cerulein-induced acute pancreatitis assessed as increase in ratio of plasma 8,9-EET/DHET level at 10 mg/kg, ip drug administered at 30 mins and 2.5 hrs post-first cerulein injection and measured after 6 hrs post-first cerulein injection (reference value: 69.8 to 77.3 %); format: functional; conditions: time 3.5-5.5 hrs
[3] = tested on: Mus musculus; experiment: Anti-inflammatory activity in BALB/c mouse model of carrageenan-induced paw edema assessed as decrease in plasma 14,15-DHET levels at 10 mg/kg, po measured after 6 hrs relative to control; format: functional; design: scale not given: the % may be the effect or the level left
[4] = tested on: Rattus norvegicus; experiment: Anti-inflammatory activity in Sprague-Dawley rat model of CFA-induced rheumatoid arthritis assessed as reduction in hyperplasia in synovial tissue at 10 mg/kg, po administered daily measured after 19 days by H and E staining based analysis; format: functional, organism-based; conditions: time 19.0 day
[5] = tested on: Rattus norvegicus; experiment: Anti-inflammatory activity in Sprague-Dawley rat model of CFA-induced rheumatoid arthritis assessed as decrease in joint deformity at 10 mg/kg, po administered daily measured after 7 days; format: functional, organism-based; conditions: time 7.0 day
[6] = tested on: Mus musculus; experiment: Anti-inflammatory activity in CD-1 mouse model of cerulein-induced acute pancreatitis assessed as decrease in plasma TNF-alpha level at 10 mg/kg, ip drug administered at 30 mins and 2.5 hrs post-first cerulein injection and measured after 6 hrs post-first cerulein injection; format: functional, organism-based; conditions: time 3.5-5.5 hrs
[7] = Cmax in Sprague-Dawley rat at 5 mg/kg, iv measured for 24 hrs; format: ADME, organism-based; conditions: in vivo
[8] = Cmax in plasma of C57BL/6J mouse at 20 mg/kg, po measured for 24 hrs; format: ADME, organism-based
[9] = Oral bioavailability in Sprague-Dawley rat at 20 mg/kg measured for 24 hrs; format: ADME, organism-based; conditions: in vivo
[10] = tested on: Mus musculus; experiment: Anti-inflammatory activity in CD-1 mouse model of cerulein-induced acute pancreatitis assessed as decrease in plasma IL-6 level at 10 mg/kg, ip drug administered at 30 mins and 2.5 hrs post-first cerulein injection and measured after 6 hrs post-first cerulein injection; format: functional, organism-based; conditions: time 3.5-5.5 hrs
[11] = tested on: Rattus norvegicus; experiment: Anti-inflammatory activity in Sprague-Dawley rat model of CFA-induced rheumatoid arthritis assessed as decrease in plasma IL-6 level at 10 mg/kg, po administered daily measured after 19 days relative to control; format: functional; design: scale not given: the % may be the effect or the level left; conditions: time 19 day
[12] = tested on: RAW264.7; experiment: Anti-inflammatory activity in LPS-indeced mouse RAW264.7 cells assessed as reduction in TNF-alpha level at 10 uM preincubated for 1 hr followed by LPS addition measured after 24 hrs by ELISA; format: functional, cell-based; conditions: time 25.0 hrs
[13] = AUC (0 to 24 hrs) in Sprague-Dawley rat at 20 mg/kg, po measured for 24 hrs; format: ADME, organism-based; conditions: in vivo
[14] = Clearance in Sprague-Dawley rat at 20 mg/kg, po measured for 24 hrs; format: ADME, organism-based; conditions: in vivo
[15] = tested on: Mus musculus; experiment: Anti-inflammatory activity in BALB/c mouse model of carrageenan-induced paw edema assessed as increase in ratio of 14,15-EET to DHET plasma levels at 10 mg/kg, po measured after 6 hrs relative to control; format: functional
[16] = tested on: Rattus norvegicus; experiment: Anti-inflammatory activity in Sprague-Dawley rat model of CFA-induced rheumatoid arthritis assessed as increase in plasma 8,9-EET level at 10 mg/kg, po administered daily measured after 19 days relative to control; format: functional; conditions: time 19 day
[17] = target: T1, Cytochrome P450 1A2 (Homo sapiens, UniProt P05177); experiment: Inhibition of CYP1A2 in human liver microsomes preincubated for 10 mins followed by NADPH addition measured after 3.5 mins by LC-MS/MS analysis; format: ADME, Microsome
T1 sequence (P05177 whole entry): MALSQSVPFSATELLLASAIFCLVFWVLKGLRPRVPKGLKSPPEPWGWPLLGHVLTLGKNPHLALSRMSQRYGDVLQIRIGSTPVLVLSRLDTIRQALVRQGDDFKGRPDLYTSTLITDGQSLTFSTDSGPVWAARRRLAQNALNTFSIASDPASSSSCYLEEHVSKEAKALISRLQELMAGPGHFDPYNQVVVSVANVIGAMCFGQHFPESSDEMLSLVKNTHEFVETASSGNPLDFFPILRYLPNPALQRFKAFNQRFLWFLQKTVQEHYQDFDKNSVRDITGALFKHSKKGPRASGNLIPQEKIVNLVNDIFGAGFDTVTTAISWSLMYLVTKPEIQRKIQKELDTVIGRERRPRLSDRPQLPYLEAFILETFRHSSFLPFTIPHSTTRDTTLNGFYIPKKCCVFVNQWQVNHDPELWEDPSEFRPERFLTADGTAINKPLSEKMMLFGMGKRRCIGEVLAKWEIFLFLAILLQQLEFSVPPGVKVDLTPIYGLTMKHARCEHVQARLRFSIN

[18] = Volume of distribution in Sprague-Dawley rat at 20 mg/kg, po measured for 24 hrs; format: ADME, organism-based; conditions: in vivo
[19] = AUC (0 to 24 hrs) in plasma of C57BL/6J mouse at 20 mg/kg, po measured for 24 hrs; format: ADME, organism-based
[20] = Ratio of AUC (0 to 24 hrs) in liver to plasma in C57BL/6J mouse at 20 mg/kg, po measured for 24 hrs; format: ADME, organism-based; conditions: liver and plasma, read-out: Ratio AUC
[21] = Ratio of Cmax in brain to plasma in C57BL/6J mouse at 20 mg/kg, po measured for 24 hrs; format: ADME, organism-based; conditions: brain and plasma
[22] = target: T2, Bifunctional epoxide hydrolase 2 (Mus musculus, UniProt P34914); experiment: biochemical
T2 sequence (P34914 whole entry): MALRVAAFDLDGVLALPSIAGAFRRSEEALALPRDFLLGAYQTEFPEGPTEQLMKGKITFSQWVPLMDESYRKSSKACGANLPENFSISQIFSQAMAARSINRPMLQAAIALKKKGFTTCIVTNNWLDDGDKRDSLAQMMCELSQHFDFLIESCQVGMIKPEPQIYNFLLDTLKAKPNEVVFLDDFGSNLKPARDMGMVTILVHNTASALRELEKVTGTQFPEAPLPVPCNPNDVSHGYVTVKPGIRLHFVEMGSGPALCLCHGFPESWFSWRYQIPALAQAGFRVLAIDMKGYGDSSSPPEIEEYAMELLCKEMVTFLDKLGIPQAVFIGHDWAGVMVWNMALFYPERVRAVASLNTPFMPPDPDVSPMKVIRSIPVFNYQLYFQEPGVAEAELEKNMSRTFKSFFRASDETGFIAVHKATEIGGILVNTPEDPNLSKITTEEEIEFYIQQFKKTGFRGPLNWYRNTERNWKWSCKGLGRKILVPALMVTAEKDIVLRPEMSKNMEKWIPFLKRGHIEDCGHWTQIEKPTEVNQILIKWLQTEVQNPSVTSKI
Description: Inhibition of C57BL/6J mouse brain sEH using 14,15-EET as substrate preincubated for 15 mins followed by substrate addition by HPLC-MS analysis

[23] = In vivo inhibition of pancreatic sEH in CD-1 mouse model of cerulein-induced acute pancreatitis 10 mg/kg, ip drug administered at 30 mins and 2.5 hrs post-first cerulein injection and measured after 6 hrs post-first cerulein injection; format: functional; conditions: time 3.5-5.5 hrs
[24] = tested on: Rattus norvegicus; experiment: Anti-inflammatory activity in Sprague-Dawley rat model of CFA-induced rheumatoid arthritis assessed as decrease in paw redness at 10 mg/kg, po administered daily measured after 7 days; format: functional, organism-based; conditions: time 7.0 day
[25] = Ratio of Cmax in kidney to plasma in C57BL/6J mouse at 20 mg/kg, po measured for 24 hrs; format: ADME, organism-based; conditions: kidney and plasma

Cmax [7]: 3120 ng/mL | Cmax [8]: 482 ng/mL | bioavailability [9]: 8.3% | AUC(0-t) at 24 h [13]: 725 ng·h/mL | CL/F [14]: 470 mL/min/kg | pIC50 [17]: < 4.30 | Vd [18]: 74.6 L/kg | AUC(0-t) at 24 h [19]: 532 ng·h/mL | Kp at 24 h [20]: 50.9 | Kp at 24 h [21]: 0.06 | pIC50 [22]: 9.29 | Kp at 24 h [25]: 9.43
Compound: COc1cc(CC(=O)N2CCC(NC(=O)NCc3ccc(OC(F)(F)F)cc3)CC2)cc(OC)c1
Activity [1]: Active | Activity [2]: 558% | Activity [3]: 69.8% | Activity [4]: Active; Mild Hyperplasia Was Observed | Activity [5]: Active | Activity [6]: Active | Activity [10]: Active | Activity [11]: 60% | Activity [12]: Active | Activity [15]: 677% | Activity [16]: 105% | inhibition in vivo at 10 mg/kg [23]: 44.7% | Activity [24]: Active
